Assay results published in patent US20120135995A1, “FUNGICIDAL DIPHENYL-SUBSTITUTED PYRIDAZINES” (E.I. Dupont de Nemours and Company, priority 2009, published 2012).

Key:
Assay type in all cases: in vivo
[1] = test system: Puccinia recondita f. sp. tritici; assay: Test E2: wheat seedlings sprayed, next day inoculated with Puccinia recondita f. sp. tritici (wheat leaf rust), visual disease rating; conditions: sprayed day before inoculation; for Test E2 rating (disease control) / pest or weed control at 200 ppm: 200 ppm test suspension; for pest or weed control at 40 ppm / pest or weed control at 200 ppm: Puccinia recondita; for pest or weed control at 40 ppm: 40 ppm test suspension (*)
Excerpt: (§1) General protocol for preparing test suspensions for Tests A-F: the test compounds were first dissolved in acetone in an amount equal to 3% of the final volume and then suspended at the desired concentration (in ppm) in acetone and purified water (50/50 mix) containing 250 ppm of the surfactant Trem® 014 (polyhydric alcohol esters). The resulting test suspensions were then used in Tests A-F. Spraying a 200 ppm test suspension to the point of run-off on the test plants was the equivalent of a rate of 500 g/ha. An asterisk “*” next to the rating value indicates a 40 ppm test suspension.
The test suspension was sprayed to the point of run-off on wheat seedlings. The following day the seedlings were inoculated with a spore suspension of Puccinia recondita f. sp. tritici (the causal agent of wheat leaf rust) and incubated in a saturated atmosphere at 20° C. for 24 h, and then moved to a growth chamber at 20° C. for 7 days, after which time visual disease ratings were made.
(§2) Results for Tests A-F are given in Table A. In the Table, a rating of 100 indicates 100% disease control and a rating of 0 indicates no disease control (relative to the controls). A dash (-) indicates no test results. All results are for 200 ppm except where followed by “*”, which indicates 40 ppm.

Septoria nodorum = assay: Test C: wheat seedlings sprayed, next day inoculated with Septoria nodorum (wheat glume blotch), visual disease rating; conditions: sprayed day before inoculation; for Test C rating (disease control) / pest or weed control at 200 ppm: 200 ppm test suspension; for pest or weed control at 40 ppm / pest or weed control at 200 ppm: Parastagonospora nodorum; for pest or weed control at 40 ppm: 40 ppm test suspension (*)
Excerpt: as §1
(§3) The test suspension was sprayed to the point of run-off on wheat seedlings. The following day the seedlings were inoculated with a spore suspension of Septoria nodorum (the causal agent of wheat glume blotch) and incubated in a saturated atmosphere at 24° C. for 48 h, and then moved to a growth chamber at 20° C. for 6 days, after which time visual disease ratings were made.
as §2

Botrytis cinerea = assay: Test A: tomato seedlings sprayed, next day inoculated with Botrytis cinerea (tomato Botrytis), visual disease rating; conditions: sprayed day before inoculation; for Test A rating (disease control) / pest or weed control at 200 ppm: 200 ppm test suspension; for pest or weed control at 40 ppm / pest or weed control at 200 ppm: Botrytis cinerea; for pest or weed control at 40 ppm: 40 ppm test suspension (*)
Excerpt: as §1
The test suspension was sprayed to the point of run-off on tomato seedlings. The following day the seedlings were inoculated with a spore suspension of Botrytis cinerea (the causal agent of tomato Botrytis) and incubated in saturated atmosphere at 20° C. for 48 h, and then moved to a growth chamber at 24° C. for 3 days, after which time visual disease ratings were made.
as §2

Septoria tritici = assay: Test D: wheat seedlings sprayed, next day inoculated with Septoria tritici (wheat leaf blotch), visual disease rating; conditions: sprayed day before inoculation; for Test D rating (disease control) / pest or weed control at 200 ppm: 200 ppm test suspension; for pest or weed control at 40 ppm / pest or weed control at 200 ppm: Zymoseptoria tritici; for pest or weed control at 40 ppm: 40 ppm test suspension (*)
Excerpt: as §1
as §3, with “tritici” for “nodorum”, “leaf” for “glume”, “in” for “in a”, “19” for “6”
as §2

Erysiphe graminis = assay: Test F: wheat seedlings sprayed, next day inoculated with Erysiphe graminis (wheat powdery mildew), visual disease rating; conditions: sprayed day before inoculation; for Test F rating (disease control) / pest or weed control at 200 ppm: 200 ppm test suspension; for pest or weed control at 40 ppm / pest or weed control at 200 ppm: Blumeria graminis; for pest or weed control at 40 ppm: 40 ppm test suspension (*)
Excerpt: as §1
The test suspension was sprayed to the point of run-off on wheat seedlings. The following day the seedlings were inoculated with a spore dust of Erysiphe graminis, (the causal agent of wheat powdery mildew) and incubated in a growth chamber at 20° C. for 8 days, after which time visual disease ratings were made.
as §2

Alternaria solani = assay: Test B: tomato seedlings sprayed, next day inoculated with Alternaria solani (tomato early blight), visual disease rating; conditions: sprayed day before inoculation; for Test B rating (disease control) / pest or weed control at 200 ppm: 200 ppm test suspension; for pest or weed control at 40 ppm / pest or weed control at 200 ppm: Alternaria solani; for pest or weed control at 40 ppm: 40 ppm test suspension (*)
Excerpt: as §1
The test suspension was sprayed to the point of run-off on tomato seedlings. The following day the seedlings were inoculated with a spore suspension of Alternaria solani (the causal agent of tomato early blight) and incubated in a saturated atmosphere at 27° C. for 48 h, and then moved to a growth chamber at 20° C. for 5 days, after which time visual disease ratings were made.
as §2

Structure (SMILES) | Test E2 rating (disease control) [1] [%] | Test C rating (disease control) (Septoria nodorum) [%] | Test A rating (disease control) (Botrytis cinerea) [%] | Test D rating (disease control) (Septoria tritici) [%] | Test F rating (disease control) (Erysiphe graminis) [%] | Test B rating (disease control) (Alternaria solani) [%] | pest or weed control at 200 ppm [1] [%] | pest or weed control at 200 ppm (Septoria nodorum) [%] | pest or weed control at 200 ppm (Botrytis cinerea) [%] | pest or weed control at 200 ppm (Septoria tritici) [%] | pest or weed control at 200 ppm (Erysiphe graminis) [%] | pest or weed control at 200 ppm (Alternaria solani) [%] | also measured
COc1cc(OC)cc(-c2c(Cl)nnc(C)c2-c2ccc(Cl)cc2)c1 [Compound 1] | 0 | 0 | 0 | 0 | 0 | 0 | – | – | – | – | – | – | –
COc1cc(OC)cc(-c2c(C)nnc(C)c2-c2c(F)cc(OC)cc2F)c1 [Compound 11, 4-(2,6-difluoro-4-methoxyphenyl)-5-(3,5-dimethoxyphenyl)-3,6-dimethylpyridazine] | – | – | – | – | – | – | – | – | – | – | – | – | pest or weed control at 40 ppm [1]: 100%; pest or weed control at 40 ppm (Septoria nodorum): 99%; pest or weed control at 40 ppm (Botrytis cinerea): 100%; pest or weed control at 40 ppm (Septoria tritici): 100%; pest or weed control at 40 ppm (Erysiphe graminis): 100%; pest or weed control at 40 ppm (Alternaria solani): 100%
COc1cc(OC)cc(-c2c(C)nnc(C)c2-c2c(F)ccc(F)c2F)c1 [Compound 17, 4-(3,5-dimethoxyphenyl)-3,6-dimethyl-5-(2,3,6-trifluorophenyl)pyridazine] | – | – | – | – | – | – | 100 | 99 | 100 | 99 | 100 | 100 | –
COc1cc(OC)cc(-c2c(C)nnc(C)c2-c2c(F)cccc2F)c1 [Compound 31] | 99 | 100 | 100 | 100 | 98 | 99 | – | – | – | – | – | – | –
COc1cc(OC)cc(-c2cnnc(CCl)c2-c2c(F)cc(F)cc2F)c1 [Compound 7, 3-(chloromethyl)-5-(3,5-dimethoxyphenyl)-4-(2,4,6-trifluorophenyl)-pyridazine] | – | – | – | – | – | – | 98 | 94 | 91 | 96 | 99 | 26 | –
COc1cc(OC)cc(-c2c(C)nnc(Cl)c2-c2c(F)ccc(F)c2F)c1 [Compound 15, 3-chloro-5-(3,5-dimethoxyphenyl)-6-methyl-4-(2,3,6-trifluorophenyl)pyridazine] | – | – | – | – | – | – | 100 | 84 | 100 | 99 | 99 | 100 | –
COc1cc(OC)c(Cl)c(-c2c(C)nnc(Cl)c2-c2c(F)cccc2F)c1 [Compound 28] | 100 | 78 | 100 | 100 | 100 | 100 | – | – | – | – | – | – | –
COc1cc(OC)cc(-c2c(Cl)nnc(C)c2-c2c(F)cccc2F)c1 [Compound 4, 3-chloro-4-(3,5-dimethoxyphenyl)-6-methyl-5-(2,6-difluorophenyl)pyridazine] | – | – | – | – | – | – | 100 | 0 | 95 | 98 | 95 | 97 | –
COc1cc(OC)c(Cl)c(-c2c(C)nnc(C)c2-c2c(F)cccc2F)c1Cl [Compound 34] | 100 | 0 | 100 | 100 | 97 | 0 | – | – | – | – | – | – | –
COc1cc(OC)c(Cl)c(-c2c(C)nnc(Cl)c2-c2c(F)cc(F)cc2F)c1 [Compound 23, 3-chloro-5-(2-chloro-3,5-dimethoxyphenyl)-6-methyl-4-(2,4,6-trifluoro-phenyl)pyridazine] | – | – | – | – | – | – | – | – | – | – | – | – | pest or weed control at 40 ppm [1]: 100%; pest or weed control at 40 ppm (Septoria nodorum): 100%; pest or weed control at 40 ppm (Botrytis cinerea): 100%; pest or weed control at 40 ppm (Septoria tritici): 100%; pest or weed control at 40 ppm (Erysiphe graminis): 100%; pest or weed control at 40 ppm (Alternaria solani): 100%
